The text below walks through data of PMC8570591 (ACS catalysis, 2021).

Structures are written as SMILES.

This experiment has as its target T1, EanB (Chlorobium limicola, UniProt B3ECE3).
T1 sequence (B3ECE3 1-457): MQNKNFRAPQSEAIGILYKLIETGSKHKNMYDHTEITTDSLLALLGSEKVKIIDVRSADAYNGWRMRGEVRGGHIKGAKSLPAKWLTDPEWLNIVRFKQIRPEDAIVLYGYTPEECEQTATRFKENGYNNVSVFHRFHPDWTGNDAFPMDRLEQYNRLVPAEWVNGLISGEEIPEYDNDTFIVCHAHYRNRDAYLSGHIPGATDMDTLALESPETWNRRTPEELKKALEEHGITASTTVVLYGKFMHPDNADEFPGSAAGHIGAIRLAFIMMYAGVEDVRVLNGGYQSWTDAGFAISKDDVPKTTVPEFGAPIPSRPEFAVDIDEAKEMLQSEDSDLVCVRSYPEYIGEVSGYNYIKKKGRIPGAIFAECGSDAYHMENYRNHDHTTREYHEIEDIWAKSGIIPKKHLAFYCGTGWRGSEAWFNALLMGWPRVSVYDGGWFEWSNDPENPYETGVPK
Nature of the experiment: hercynine epsilon-C-H/D2O exchange kinetics by LC-MS, purified enzyme. Format: biochemical.

As to `C[N+](C)(C)[C@@H](Cc1cnc[nH]1)C(=O)[O-]` [compound 2, hercynine], the affinity, expressed as Kd, was 161 ± 18.6 µM.
